Measured values from patent US20260273020A1, “OBESTATIN FOR USE AS ANTINEOPLASTIC AGENT IN THE TREATMENT OF PANCREATIC CANCER” (SERVIZO GALEGO DE SAÚDE, priority 2023, published 2026).

Assays:
Assay type in all cases: in vivo, C57BL/6J mice
[1] = Pancreatic cancer associated cachexia: skeletal muscle weight, food intake; conditions: tumour-bearing mice
Method: FIG. 9. Analysis of obestatin action on skeletal muscle cachexia of C57BL/6J mice (n=4) orthotopically injected with KPC FC1242 cells and treated with vehicle [NaCl, 0.9% (w/v)] or obestatin (500 nmol/Kg/72 h). Tibialis anterior (TA), gastrocnemius (GA), soleus (SOL), extensor digitorum longus (EDL) and diaphragm (DIA) muscles were collected and weighted at day 12 after tumour injection. Results are expressed as the percentage of the weight recovery of the muscle of obestatin-treated mice related to vehicle treated mice (mean±SE).
In vivo experiments were carried out in C57BL/6 mice, obtained from the Central Animal Facility of the University of Santiago de Compostela. Male C57BL/6 mice, weighing 25 g on arrival, were housed four per cage at a constant temperature of 22±2° C. and at a 12 h light/dark cycle. The mice were kept for 5 days for acclimation, with free access to water, and a standard mice chow with a composition of 5.5% fat, 23% protein and 70% carbohydrate (SAFE-Panlab, Spain).
The mice were assigned to the different groups (n=4/group) and treated for five days with: 1) healthy control, 2) tumour+vehicle [NaCl, 0.9% (w/v)], and 3) tumour+obestatin (500 nmol/Kg/72 h). Mice without tumoral cells treatment were utilized as healthy controls.
(§1) Mice were weighed at set times over the 15-day period. The sterilized surgical material was used for the tissue extraction. Pancreases and muscles were carefully removed from each animal minimizing contamination with surrounding tissue or mouse hair. Pancreases and muscles were weighed. The skeletal muscles selected were: tibialis anterior, TA; extensor digitorum longus, EDL; gastrocnemius, GAST; soleus, SOL; and diaphragm, DIA. Pancreases were also measured with a scale (cm) and pictures were taken. • Histology—Pancreas samples for histology were fixed in 4% paraformaldehyde in PBS at room temperature overnight. After fixation, samples were dehydrated and embedded in paraffin blocks. For this study, 3-micron sections were cut from each block and placed on pre-cleaned slides (Thermo Fisher Scientific, Waltham, MA, USA). The sectioned tissue slides were covered with a thin layer of paraffin, stoked at 60° C. for 1 hour and stored protected from light at room temperature to preserve the antigenicity of sections. • Immunoblot—For immunoblot analysis, pancreases were immediately frozen in dry ice and stored at −80° C. until use. Tissues were homogenized using a TissueLyser II tissue homogenizer (Qiagen, Hilden, DE), in 200 μL of RIPA lysis buffer at 30 Hz for 3 min. The lysates were clarified by centrifugation (18,000×g, 15 min, 4° C.), and the protein concentration was quantified by the Quantipro™ BCA assay kit (Sigma-Aldrich, St. Louis, MO, US).

[2] = tested on: aSMA, HSP47, vimentin, collagen I, fibronectin, ADRP; test: Immunoblot of pancreatic tumors: fibrosis and CAF markers; conditions: obestatin 500 nmol/Kg/72 h
Method: (§2) FIG. 6. Immunoblot analysis of aSMA, vimentin, collagen I, fibronectin, and ADPR in the pancreatic tumors of C57BL/6J mice (n=4) orthotopically injected with KPC FC1242 cells and treated with vehicle [NaCl, 0.9% (w/v)] or obestatin (500 nmol/Kg/72 h). Results are expressed as fold of control of the non-treated injected mice [control; mean±SE (*, P<0.05)].
as §1
(§3) Tissues were disrupted and homogenized in ice-cold lysis buffer [50 mM Tris-HCl pH 7.2, 150 mM NaCl, 1 mM EDTA, 1% (v/v) NP-40, 0.25% (w/v) Na-deoxycholate, protease inhibitor cocktail (PIC; 1:100; Sigma Chemical Co., St. Luis, MO, US), phosphatase inhibitor cocktail (PHIC; 1:100; Sigma Chemical Co., St. Luis, MO, US)] with 5 mm stainless steel beads using a TissueLyser (Qiagen, Hilden, DE) at 30 Hz for 3 min. The soluble cell lysates were pre-cleared by centrifuging at 14,000 rpm for 15 min. Supernatants were recovered and the protein was quantified with BCA Protein Assay Kit (Thermo Fisher Scientific, Rockford, IL, US). The same amount of protein for each sample was separated on 7-15% SDS/polyacrylamide gels and transferred to nitrocellulose membranes (Bio-Rad, Hercules, CA, US). The blots were incubated with 5% bovine serum albumin (BSA) in a Tris buffer solution (TBS) containing Tween-20 [TBST; 20 mM Tris-HCl (pH 8.0), 150 mM NaCl, 0.1% (v/v) Tween-20, solution used for all incubation and washing steps] for 1 h. The blots were then incubated with the corresponding primary antibodies and subsequently were incubated with the corresponding peroxidase-conjugated IgG antibody (Table 1). After washing, the signals were visualized using an ECL plus Western Blotting Detection System (Pierce ECL Western Blotting Substrate; Thermo Fisher Scientific, Pierce, Rockford, IL, US). The image processing was performed using the NIH Image Software ImageJ 1.53o (National Institutes of Health, Bethesda, MD, US).

[3] = tested on: p62, LC3, cleaved caspase 3, Bax, HIF1a; test: Immunoblot of pancreatic tumors: apoptosis, autophagy, HIF1a; conditions: obestatin 500 nmol/Kg/72 h
Method: as §2, with “5.” for “6.”, “p62, LC3, cleaved caspase 3, Bax,” for “aSMA, vimentin, collagen I, fibronectin,”, “HIF1a” for “ADPR”
as §1, §3

[4] = tested on: pERK1/2(T202/Y204), ERK1/2, pAkt(S473), Akt; test: Immunoblot of tumoral pancreatic tissue: ERK1/2 and Akt
Method: FIG. 4. (A) Analysis and quantification of Ki67 positive proliferative cells by immunohistochemistry in the pancreatic tumors of C57BL/6J mice (n=4) orthotopically injected with KPC FC1242 cells and treated with vehicle [NaCl, 0.9% (w/v)] or obestatin (500 nmol/Kg/72 h). Magnification: 4×. (B) Immunoblot analysis of pERK1/2(T202/Y204), ERK1/2, pAkt(S473), and Akt in tumoral pancreatic tissue. Results are expressed as fold of control of the non-treated injected mice [control; mean±SE (*, P<0.05)].
as §1, with “The sectioned tissue slides were covered with a thin layer of paraffin, stoked at 60° C. for 1 hour and stored protected from light at room temperature to preserve the antigenicity of sections. • Immunoblot—For immunoblot analysis, pancreases were immediately frozen in dry ice and stored at −80° C. until use. Tissues were homogenized using a TissueLyser II tissue homogenizer (Qiagen, Hilden, DE), in 200 μL of RIPA lysis buffer at 30 Hz for 3 min.” left out
Tissues were disrupted and homogenized in ice-cold lysis buffer [50 mM Tris-HCl pH 7.2, 150 mM NaCl, 1 mM EDTA, 1% (v/v) NP-40, 0.25% (w/v) Na-deoxycholate, protease inhibitor cocktail (PIC; 1:100; Sigma Chemical Co., St. Luis, MO, US), phosphatase inhibitor cocktail (PHIC; 1:100; Sigma Chemical Co., St. Luis, MO, US)] with 5 mm stainless steel beads using a TissueLyser (Qiagen, Hilden, DE) at 30 Hz for 3 min. […] Supernatants were recovered and the protein was quantified with BCA Protein Assay Kit (Thermo Fisher Scientific, Rockford, IL, US). […]

[5] = obestatin 500 nmol/Kg/72 h, referenced to non-treated animals

## obestatin
[1]; obestatin 500 nmol/Kg/72 h
  effect on skeletal muscle weight loss, diaphragm (DIA): No effect
  reduction of skeletal muscle weight loss (weight recovery vs vehicle treated mice), extensor digitorum longus (EDL): 62.2±8.1%
  reduction of skeletal muscle weight loss (weight recovery vs vehicle treated mice), gastrocnemius (GAS): 10.6±3.2%
  reduction of skeletal muscle weight loss (weight recovery vs vehicle treated mice), soleus (SOL): 33.0±7.3%
  reduction of skeletal muscle weight loss (weight recovery vs vehicle treated mice), tibialis anterior (TA): 30.8±6.1%
[1]; obestatin treatment
  food intake: maintaining food intake
[2]
  adipophilin (ADRP) diminished: 42.6±8.8%
  augment of vimentin: 111.1±19.1%
  higher levels of HSP47: 49.5±17.7%
  increased expression of aSMA: 53.7±7.3%
  inhibition of expression of collagen: 60.1±2.9%
  inhibition of expression of fibronectin: 57.0±7.1%
[3]; compared to control or vehicle-treated animals
  increased expression of HIF1a: 106.6±17.8%
[3]; pancreatic tumors
  diminution in LC3-I: 9.2±7.5%
  increase in cleaved caspase 3: 264.6±57.7%
  increase in levels of proapoptotic Bax: 141.6±28.4%
  reduction in LC3-II levels: 21.8±7.3%
  upregulation in p62: 75.7±20.8%
[4]; Western blotting
  total expressions of ERK and AKT: unchanged
[4]; [5]
  Akt activation augmented, pAkt(S473): 369.5±100.1%
  reduction in ERK1/2 activation, pERK1/2(T202/Y204): ~50%
